Patent publication US20160361326A1, “METHOD OF TREATING HYPERGLYCEMIA AND DIABETES AND OF INCREASING ADSORPTION AND EFFICACY OF VITAMIN D” (Board of Supervisors of Louisiana State University and …, priority 2015, published 2016)
One block for each compound: values may come before it.

Key:
[1] = system: THP-1 monocytes; test: L-cysteine and vitamin D supplementation in control and high-glucose treated THP-1 monocytes; assay type: cell-based, human
Protocol: Control cells were treated with mannitol, which is considered an osmolarity control. To investigate the role of glutathione, siRNA specific for glutamate cysteine ligase catalytic unit (the catalytic component of the enzyme) was used to knock down the enzyme and induce glutathione deficiency. Complexes of glutamate cysteine ligase catalytic unit siRNA (Santa Cruz Biotechnology) and lipofectamine (Invitrogen) were allowed to form in culture flasks in serum free media, to which cells suspended in serum free media were added. After 24 hours complete media with serum was added and the cells were then treated as described in the figures.
25-hydroxy vitamin D (calcidiol) blood test is used to determine how much vitamin D is in the body. The blood concentration of calcidiol is considered an standard indicator of vitamin D status. The kit includes polyclonal antibodies that detect total vitamin D binding protein levels. Levels of glutathione and L-cysteine were determined using HPLC. Details of immunoblotting and cell viability are similar to those given in the publication Vitamin D and 1-cysteine levels correlate positively with glutathione and negatively with insulin resistance levels in the blood of type 2 diabetic patients. Eur J Clin Nutr 68: 1148-1153, 2014 by Jain S K, Micinski D, Huning L, Kahlon G, Bass P F, and Levine SN—such described methods incorporated by reference herein. The antibodies for glutamate cysteine ligase catalytic unit (73 KD), vitamin D binding protein (52 KD), and vitamin D receptor (48 KD) were purchased from Abcam (Cambridge, Mass.).

[2] = system: Zucker diabetic fatty rats; test: L-cysteine supplementation in Zucker diabetic fatty rats: liver protein and mRNA expression, glutathione, reactive oxygen species; assay type: in vivo, rat; conditions: 8 weeks
Excerpt: (§1) The animal protocol was approved by the institutional Animal Welfare Committee (P-15-006). All procedures performed were in accordance with the ethical standards of the institution. Male Zucker diabetic fatty rats at an age of 5 weeks and weighing about 200-220 g were purchased from Charles River (Wilmington, Mass., USA). The animals were allowed to acclimate to the environmental and handling conditions for 2 days. Computer generated randomization was used to divide rats into two groups, after which they were housed and labelled in individual cages. After overnight fasting they were weighed and tested for hyperglycemia by measuring their blood glucose concentration. Blood was collected via tail incision and the blood glucose levels were measured using an Advantage Accu-chek glucometer (Boehringer Mannheim Corp., Indianapolis, Ind., USA). One group of rats was labeled as diabetic controls and gavaged with saline alone. […] A third group included in the study, called the control group, consisted of male Sprague Dawley (SD) rats who were also gavaged daily with saline. […] Blood glucose and body weight were monitored weekly in all rats. Based on any change in their weights the L-cysteine supplementation dose was adjusted accordingly every week to maintain a similar dose per Kg BW over the entire period of the study.
(§2) All Zucker diabetic fatty rats were fed a high calorie Purina 5008 lab chow diet (Charles River, Wilmington, Mass., USA). This diet contained 3.4 IU vitamin D3 per gram diet. Sprague Dawley rats were fed a standard 8640 lab chow diet, which contained 3 IU vitamin D3 per gram diet (Harlan, Indianapolis, Ind., USA); both Zucker diabetic fatty and Sprague Dawley rats were maintained at 22 ±2° C. with 12:12-h light/dark cycles. Food intake of all rats was monitored. The control group contained six rats. There were also six rats each in the placebo and L-cysteine-supplemented diabetic rat groups. At the end of 8 weeks the rats were fasted overnight and euthanized by exposing them to halothane (2-bromo-2-chloro-1,1,1-trifluoroethane). Blood was drawn with a 191/2 gauge needle via cardiac puncture into vacutainer tubes. Aliquots of blood collected from all rats were sent to the clinical laboratory of LSUHSC-Shreveport for blood chemistry profiles, including liver and renal function and red blood cell counts. Plasma was isolated in a 4° C. centrifuge at 3000 rpm for 10 min from blood collected into EDTA tubes. Rat livers were perfused using cold saline. Once extracted, they were labeled appropriately, and stored at −80° C.
About 50 mg of liver tissue was weighed and homogenized in 1 mL TRIzol reagent (Invitrogen, Grand Island, N.Y., USA). The RNA extraction was performed according to the instructions provided. The concentration and quality of the extracted RNA were determined on a NanoDrop spectrophotometer (Thermo Scientific, Pittsburgh, Pa., USA). A High Capacity RNA-To-cDNA kit (Invitrogen) was used to synthesize cDNA. QPCR was performed using a 7900HT Real Time PCR system and software (Applied Biosystems, Grand Island, NY, USA) using the FAM-labeled primer/probe set Rn00561256_m1 for vitamin D binding protein (also called GC), Rn00690616_m1 for vitamin D receptor, Rn01754615 ml for CYP2R1, and Rn01775763_g1 for GAPDH (Invitrogen), respectively. The relative fold change of mRNA was calculated using the relative quantification (ΔΔCT) method.
Levels of glutathione and L-cysteine were determined using HPLC. In cell culture studies, the whole cell suspension was processed for the glutathione assay. Cell viability was determined using the Alamar Blue method (Alamar Biosciences, Sacramento, Calif., USA). Details of immunoblotting are similar to those known in the art. The antibodies for vitamin D binding protein (52 KD), β-Actin (40 KD), glutamate-cysteine ligase catalytic subunit (GCLC) (75 KD), and vitamin D receptor (48 KD) were purchased from Abcam (Cambridge, Mass., USA). […]

[3] = L-cysteine supplementation in Zucker diabetic fatty rats: body weight, plasma lipids, liver and kidney function tests; assay type: in vivo, rat
Excerpt: as §1, with “rats.” for “rats. Based on any change in their weights the L-cysteine supplementation dose was adjusted accordingly every week to maintain a similar dose per Kg BW over the entire period of the study.”
as §2, with “There were also six rats each in the placebo and L-cysteine-supplemented diabetic rat groups.” left out

[4] = system: FL83B hepatocytes; test: L-cysteine supplementation in FL83B hepatocytes treated with control and high glucose; assay type: cell-based, mouse
Protocol: The FL83B hepatocyte cell line was purchased from American Type Culture Collection (ATCC, Manassas, Va., USA). FL83B hepatocytes were cultured and maintained in F-12K complete medium. […] Control cells were treated with mannitol, which is considered an osmolarity control in some experiments. After 24 h, complete media with serum was added and the cells were then treated as described in the figures.
Levels of glutathione and L-cysteine were determined using HPLC. In cell culture studies, the whole cell suspension was processed for the glutathione assay. Cell viability was determined using the Alamar Blue method (Alamar Biosciences, Sacramento, Calif., USA). Details of immunoblotting are similar to those known in the art. The antibodies for vitamin D binding protein (52 KD), β-Actin (40 KD), glutamate-cysteine ligase catalytic subunit (GCLC) (75 KD), and vitamin D receptor (48 KD) were purchased from Abcam (Cambridge, Mass., USA). The intensity of each immunoblotting band was measured using the histogram tool of Adobe Photoshop CS5.
mRNA extraction and cDNA synthesis were done as described in the previous section. The following primers were used for hepatocytes: vitamin D binding protein (also called GC) (Mm04243540_m1), vitamin D receptor (Mm00437297_m1), GCLC (Mm00802655_m1), and GAPDH (Mm03302249_g1) and were purchased from Invitrogen. Sequence of oligonucleotides of primers used is given in Supporting Information Material. The relative fold change of mRNA was calculated using the relative quantification (ΔΔCT) method and then normalized to % control for representation.

[5] = system: Zucker diabetic fatty rats; test: L-cysteine supplementation in Zucker diabetic fatty rats: plasma levels of VDBP, 25(OH) vitamin D, glutathione, MCP-1, CRP; assay type: in vivo, rat; conditions: 1 mg/kg BW daily oral gavage, 8 weeks
Excerpt: as §1, §2
Plasma levels of 25(OH) vitamin D, […] were determined using an ELISA kit (Eagle Biosciences, Nashua, N.H., USA). Plasma vitamin D binding protein quantification was carried out using a kit purchased from Alpco (Salem, N.H., USA). The kit includes polyclonal antibodies that detect total vitamin D binding protein levels. The cytokines MCP-1 (R&D Systems Inc., Minneapolis, Minn., USA) and CRP (Alpco) were determined using the sandwich ELISA method and commercially available kits. In the cytokine assay, control samples were analyzed each time to check the variation from plate to plate on different days of analysis. […]
Levels of glutathione and L-cysteine were determined using HPLC. […] Cell viability was determined using the Alamar Blue method (Alamar Biosciences, Sacramento, Calif., USA). […] The intensity of each immunoblotting band was measured using the histogram tool of Adobe Photoshop CS5.

[6] = 1 mg/kg BW daily oral gavage, vs placebo
[7] = 1 mg/kg BW daily gavage for 8 weeks, mean ± SE, n=6
[8] = hepatocytes cultured with high glucose (25 mM)
[9] = vs placebo-supplemented diabetic rats
[10] = control and high glucose (25 mM)

mRNA levels of vitamin D binding protein [4, 8]: upregulation | mRNA levels of vitamin D receptor [4, 8]: upregulation | protein expression of vitamin D binding protein [4, 8]: upregulation | protein expression of vitamin D receptor [4, 8]: upregulation
SMILES: N[C@@H](CS)C(=O)O [L-cysteine]
glutathione levels [1]: significant upregulation | glutathione levels in liver [2, 6]: significantly higher | mRNA expression of vitamin D 25-hydroxylase (CYP2R1) in liver [2, 6]: significantly higher | mRNA expression of vitamin D binding protein in liver [2, 6]: significantly higher | protein expression of vitamin D 25-hydroxylase (CYP2R1) in liver [2, 6]: significantly higher | protein expression of vitamin D binding protein in liver [2, 6]: significantly higher | reactive oxygen species levels in liver [2, 6]: significantly lower | expression of protein for vitamin D receptor in liver ([2]; 1 mg/kg BW, higher vs placebo, p=0.17): not statistically significant | expression of mRNA for vitamin D receptor in liver ([2]; 1 mg/kg BW, higher vs placebo, p=0.30): not statistically significant | Body weight [3, 7]: 346 ± 6.3 g | Triglycerides [3, 7]: 509 ± 55 mg/dL | side effects of L-cysteine supplementation ([3]; 1 mg/kg BW daily gavage for 8 weeks, vs placebo): no negative side effects | Calcium ([3]; rat, in vivo, 1 mg/kg): 9.9 ± 0.4 mg/dL | decrease in glutathione levels after high glucose treatment ([4]; hepatocytes, high glucose (25 mM)): prevented | plasma glutathione ([5]; vs placebo): increase | blood levels of 25(OH) vitamin D [5, 9]: significantly higher | blood levels of vitamin D binding protein [5, 9]: significantly higher | CRP ([5]; plasma, vs placebo): decrease | MCP-1 ([5]; plasma, vs placebo): decrease

SMILES: C=C1CC[C@H](O)C/C1=C/C=C1\CCC[C@]2(C)[C@@H]([C@H](C)CCCC(C)C)CC[C@@H]12 [vitamin D, cholecalciferol]
vitamin D binding protein expression (VDBP/actin ratio) [1, 10]: increase | vitamin D receptor protein expression (VDR/actin ratio) [1, 10]: increase
